Test results: article PMC4505863 (ACS Chemical Neuroscience, 2014)
Entries after “also recorded” stand apart in the source; their conditions may differ.

What was measured:
Male C57BL/6J mice [1] = conditions: cited from earlier work
mice = conditions: cited from earlier work; for doses producing the head twitch in mice: 34−36; for active dose range, head twitch: ref 36−38
human 5-HT2C receptor [2] = target: T1, human 5-HT2C receptor (Homo sapiens, UniProt P28335); experiment: h5-HT2C affinity, agonist radioligand [125I]DOI; format: binding
T1 sequence (P28335 33-458): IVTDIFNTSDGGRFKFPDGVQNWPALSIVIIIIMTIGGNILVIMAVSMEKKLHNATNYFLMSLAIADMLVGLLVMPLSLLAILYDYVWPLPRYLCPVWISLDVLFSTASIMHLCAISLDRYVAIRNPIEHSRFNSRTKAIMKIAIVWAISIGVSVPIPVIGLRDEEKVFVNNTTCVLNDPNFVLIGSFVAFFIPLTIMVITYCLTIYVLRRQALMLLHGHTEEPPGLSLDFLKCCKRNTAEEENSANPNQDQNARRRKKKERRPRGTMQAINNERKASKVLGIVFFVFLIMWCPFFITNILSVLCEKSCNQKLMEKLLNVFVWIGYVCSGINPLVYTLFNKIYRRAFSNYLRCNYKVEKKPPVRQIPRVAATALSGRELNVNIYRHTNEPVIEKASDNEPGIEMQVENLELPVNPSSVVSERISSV

r5-HT2A = r5-HT2A (Rattus norvegicus, UniProt P14842); experiment: Ca2+ mobilization assay; format: cell-based; conditions: for EC50: r5-HT2A EC50, Ca2+ mobilization; for Emax: read-out: r5-HT2A Emax, percentage of the maximum response to 5-HT
h5-HT2C = target: T2, h5-HT2C (Homo sapiens, UniProt P28335); experiment: Ca2+ mobilization assay; format: cell-based; conditions: for Emax: HEK293, read-out: h5HT2C Emax; for EC50: h5HT2C EC50, Ca2+ mobilization
T2 sequence (P28335 33-458): T1 sequence (P28335 33-458)

5-HT1A = target: T3, 5-HT1A (Homo sapiens, UniProt P08908); experiment: PDSP screening affinity 5-HT1A; format: binding; conditions: 5-HT1A affinity
T3 sequence (P08908 1-422): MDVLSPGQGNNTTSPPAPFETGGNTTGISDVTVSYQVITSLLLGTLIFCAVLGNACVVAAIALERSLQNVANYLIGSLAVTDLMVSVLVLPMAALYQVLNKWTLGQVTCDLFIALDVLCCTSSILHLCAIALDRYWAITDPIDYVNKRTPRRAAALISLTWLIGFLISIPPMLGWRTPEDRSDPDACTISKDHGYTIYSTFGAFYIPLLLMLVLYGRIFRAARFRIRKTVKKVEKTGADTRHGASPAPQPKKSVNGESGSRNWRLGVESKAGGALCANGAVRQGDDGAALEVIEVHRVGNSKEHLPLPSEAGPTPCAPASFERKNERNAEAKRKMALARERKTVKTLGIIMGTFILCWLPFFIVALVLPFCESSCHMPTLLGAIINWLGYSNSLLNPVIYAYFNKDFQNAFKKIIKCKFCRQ

Male C57BL/6J mice [3] = experiment: Mouse head twitch response; conditions: for activity in the HTR assay (active / inactive): doses up to 30 mg/kg
5-HT7 = 5-HT7 (Homo sapiens, UniProt P34969); experiment: PDSP screening affinity 5-HT7; format: binding; conditions: 5-HT7 affinity
5-ht5a = 5-ht5a (Homo sapiens, UniProt P47898); experiment: PDSP screening affinity 5-ht5a; format: binding; conditions: 5-ht5a affinity
h5-HT2B = h5-HT2B (Homo sapiens, UniProt P41595); experiment: Ca2+ mobilization assay; format: cell-based; conditions: for Emax: HEK293, read-out: h5-HT2B Emax; for EC50: h5-HT2B EC50, Ca2+ mobilization
r5-HT2C = target: T4, r5-HT2C (Rattus norvegicus, UniProt P08909); experiment: Ca2+ mobilization assay; format: cell-based; conditions: for EC50: r5-HT2C EC50, Ca2+ mobilization; for Emax: read-out: r5-HT2C Emax
T4 sequence (P08909 33-460): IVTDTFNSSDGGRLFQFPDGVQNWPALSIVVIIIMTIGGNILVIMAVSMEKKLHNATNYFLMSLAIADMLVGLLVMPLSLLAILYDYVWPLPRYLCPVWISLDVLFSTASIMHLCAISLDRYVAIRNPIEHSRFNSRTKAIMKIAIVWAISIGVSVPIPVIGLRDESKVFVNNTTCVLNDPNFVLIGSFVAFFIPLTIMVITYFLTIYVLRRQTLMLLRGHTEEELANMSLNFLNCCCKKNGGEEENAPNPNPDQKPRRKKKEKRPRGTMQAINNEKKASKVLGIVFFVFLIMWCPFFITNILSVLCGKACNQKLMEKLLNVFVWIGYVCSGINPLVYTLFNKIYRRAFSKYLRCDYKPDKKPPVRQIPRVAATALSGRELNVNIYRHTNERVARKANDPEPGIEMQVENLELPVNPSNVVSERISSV

human 5-HT2C receptor [4] = target: T1, human 5-HT2C receptor; experiment: h5-HT2C affinity, antagonist radioligand [3H]mesulergine; format: binding
5-HT2B = 5-HT2B (Homo sapiens, UniProt P41595); experiment: PDSP screening affinity 5-HT2B; format: binding
h5-HT2A = h5-HT2A (Homo sapiens, UniProt P28223); experiment: Ca2+ mobilization assay; format: cell-based; conditions: for Emax: HEK293, read-out: h5-HT2A Emax, percentage of the maximum response to 5-HT
5-HT6 = 5-HT6 (Homo sapiens, UniProt P50406); experiment: PDSP screening affinity 5-HT6; format: binding; conditions: 5-HT6 affinity
5-ht1e = 5-ht1e (Homo sapiens, UniProt P28566); experiment: PDSP screening affinity 5-ht1e; format: binding
5-HT2A receptor [5] = target: T5, 5-HT2A receptor (Homo sapiens, UniProt P28223); experiment: h5-HT2A affinity, agonist radioligand [125I]DOI; format: binding
5-HT1D = 5-HT1D (Homo sapiens, UniProt P28221); experiment: PDSP screening affinity 5-HT1D; format: binding
5-HT3 = target: T6, 5-HT3 (Homo sapiens, UniProt P46098); experiment: PDSP screening affinity 5-HT3; format: binding
T6 sequence (P46098 24-478): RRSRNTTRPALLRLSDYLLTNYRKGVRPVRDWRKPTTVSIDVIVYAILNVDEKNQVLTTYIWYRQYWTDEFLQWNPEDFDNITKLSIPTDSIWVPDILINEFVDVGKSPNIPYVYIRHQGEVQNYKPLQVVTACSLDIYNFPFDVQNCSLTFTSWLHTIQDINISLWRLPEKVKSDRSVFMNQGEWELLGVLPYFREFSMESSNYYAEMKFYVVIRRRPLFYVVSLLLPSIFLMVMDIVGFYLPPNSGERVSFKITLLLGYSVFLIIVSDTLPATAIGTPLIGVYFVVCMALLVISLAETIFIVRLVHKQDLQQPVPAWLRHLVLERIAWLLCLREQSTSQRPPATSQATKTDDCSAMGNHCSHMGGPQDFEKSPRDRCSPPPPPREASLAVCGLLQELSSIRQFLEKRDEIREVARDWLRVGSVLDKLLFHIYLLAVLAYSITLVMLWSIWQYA

5-HT2A receptor [6] = target: T5, 5-HT2A receptor; experiment: h5-HT2A affinity, antagonist radioligand [3H]ketanserin; format: binding
5-HT1B = 5-HT1B (Homo sapiens, UniProt P28222); experiment: PDSP screening affinity 5-HT1B; format: binding; conditions: 5-HT1B affinity
Sequence of 5-HT1B (P28222 whole entry): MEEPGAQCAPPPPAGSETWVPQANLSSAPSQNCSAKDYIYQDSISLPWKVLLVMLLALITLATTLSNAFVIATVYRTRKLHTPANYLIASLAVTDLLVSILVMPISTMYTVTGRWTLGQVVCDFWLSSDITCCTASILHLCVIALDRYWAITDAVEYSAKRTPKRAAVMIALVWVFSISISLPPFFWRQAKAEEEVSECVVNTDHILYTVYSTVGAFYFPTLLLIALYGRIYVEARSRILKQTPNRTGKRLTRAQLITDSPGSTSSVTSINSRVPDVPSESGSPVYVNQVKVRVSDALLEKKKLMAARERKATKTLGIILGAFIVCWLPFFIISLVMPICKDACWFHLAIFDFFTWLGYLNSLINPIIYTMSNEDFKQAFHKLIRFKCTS

Sequence of 5-HT1D (P28221 whole entry): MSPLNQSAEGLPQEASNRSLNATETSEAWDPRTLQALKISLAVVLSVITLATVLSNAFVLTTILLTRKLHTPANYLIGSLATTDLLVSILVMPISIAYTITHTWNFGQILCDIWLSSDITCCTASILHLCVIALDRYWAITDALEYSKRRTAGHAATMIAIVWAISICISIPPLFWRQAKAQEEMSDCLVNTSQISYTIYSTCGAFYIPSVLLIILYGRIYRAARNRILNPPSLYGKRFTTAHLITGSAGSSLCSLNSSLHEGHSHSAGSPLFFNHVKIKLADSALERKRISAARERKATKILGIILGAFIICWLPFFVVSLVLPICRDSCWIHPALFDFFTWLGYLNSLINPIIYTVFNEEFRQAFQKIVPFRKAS
Sequence of 5-HT7 (P34969 whole entry): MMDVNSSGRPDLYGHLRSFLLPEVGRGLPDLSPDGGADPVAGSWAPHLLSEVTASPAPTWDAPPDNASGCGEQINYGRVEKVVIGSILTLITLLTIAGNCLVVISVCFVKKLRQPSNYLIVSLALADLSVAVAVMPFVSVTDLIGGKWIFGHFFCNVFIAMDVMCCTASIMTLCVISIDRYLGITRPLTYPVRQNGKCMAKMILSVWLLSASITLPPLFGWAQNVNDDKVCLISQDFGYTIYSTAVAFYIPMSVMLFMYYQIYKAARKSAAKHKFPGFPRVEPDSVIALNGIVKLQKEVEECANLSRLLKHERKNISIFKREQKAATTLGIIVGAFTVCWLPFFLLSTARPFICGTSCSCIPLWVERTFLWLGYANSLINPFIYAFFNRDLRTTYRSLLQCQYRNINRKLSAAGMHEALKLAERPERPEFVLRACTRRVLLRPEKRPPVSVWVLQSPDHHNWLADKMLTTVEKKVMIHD
Sequence of r5-HT2A (P14842 whole entry): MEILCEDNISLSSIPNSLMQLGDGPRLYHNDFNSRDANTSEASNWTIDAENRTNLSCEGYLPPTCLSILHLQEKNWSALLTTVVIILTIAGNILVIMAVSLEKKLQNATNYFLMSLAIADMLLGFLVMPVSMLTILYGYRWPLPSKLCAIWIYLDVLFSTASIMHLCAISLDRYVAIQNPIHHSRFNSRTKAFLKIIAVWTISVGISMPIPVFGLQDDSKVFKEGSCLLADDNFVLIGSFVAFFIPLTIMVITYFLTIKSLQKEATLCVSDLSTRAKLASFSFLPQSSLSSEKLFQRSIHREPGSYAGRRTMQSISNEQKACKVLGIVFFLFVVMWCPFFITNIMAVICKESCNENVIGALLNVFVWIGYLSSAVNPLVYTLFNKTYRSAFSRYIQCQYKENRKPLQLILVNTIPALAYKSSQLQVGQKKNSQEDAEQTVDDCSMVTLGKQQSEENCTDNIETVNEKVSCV
Sequence of h5-HT2A (P28223 whole entry): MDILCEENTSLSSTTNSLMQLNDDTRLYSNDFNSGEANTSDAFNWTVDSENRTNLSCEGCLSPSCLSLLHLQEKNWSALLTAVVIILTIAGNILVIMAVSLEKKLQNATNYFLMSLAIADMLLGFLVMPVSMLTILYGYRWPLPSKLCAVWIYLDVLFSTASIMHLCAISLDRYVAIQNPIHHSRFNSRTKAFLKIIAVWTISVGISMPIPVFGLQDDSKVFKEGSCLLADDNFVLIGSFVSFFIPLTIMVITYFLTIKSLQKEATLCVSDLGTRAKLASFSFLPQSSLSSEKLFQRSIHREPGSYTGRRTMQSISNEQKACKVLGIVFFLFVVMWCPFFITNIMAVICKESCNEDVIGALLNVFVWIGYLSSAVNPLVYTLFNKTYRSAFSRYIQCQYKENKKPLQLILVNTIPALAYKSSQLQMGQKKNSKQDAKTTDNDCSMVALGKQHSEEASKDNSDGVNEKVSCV
T5 sequence (P28223 whole entry): as above
Sequence of 5-ht1e (P28566 whole entry): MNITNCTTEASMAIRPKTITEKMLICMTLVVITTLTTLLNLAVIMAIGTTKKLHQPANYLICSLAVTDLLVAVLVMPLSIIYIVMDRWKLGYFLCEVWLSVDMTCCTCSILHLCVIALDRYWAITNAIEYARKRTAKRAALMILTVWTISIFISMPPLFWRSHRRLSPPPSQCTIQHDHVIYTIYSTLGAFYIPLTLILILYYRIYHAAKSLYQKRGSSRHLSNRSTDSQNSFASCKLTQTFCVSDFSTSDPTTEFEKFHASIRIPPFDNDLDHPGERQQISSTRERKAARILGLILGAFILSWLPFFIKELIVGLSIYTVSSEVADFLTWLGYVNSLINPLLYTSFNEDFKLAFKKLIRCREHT
Sequence of 5-HT2B (P41595 whole entry): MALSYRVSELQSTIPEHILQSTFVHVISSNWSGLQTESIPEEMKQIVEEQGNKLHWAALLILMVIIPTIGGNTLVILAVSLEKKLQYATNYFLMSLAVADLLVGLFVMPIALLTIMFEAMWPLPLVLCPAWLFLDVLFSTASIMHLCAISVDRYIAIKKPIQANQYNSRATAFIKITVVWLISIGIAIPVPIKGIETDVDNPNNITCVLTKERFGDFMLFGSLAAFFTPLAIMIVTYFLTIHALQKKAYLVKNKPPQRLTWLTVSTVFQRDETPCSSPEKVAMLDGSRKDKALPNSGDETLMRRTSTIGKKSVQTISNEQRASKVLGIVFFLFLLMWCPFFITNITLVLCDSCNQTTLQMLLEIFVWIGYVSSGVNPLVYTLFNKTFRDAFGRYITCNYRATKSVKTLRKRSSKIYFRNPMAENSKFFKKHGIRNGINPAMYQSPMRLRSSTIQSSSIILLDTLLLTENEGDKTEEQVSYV
Sequence of h5-HT2B (P41595 whole entry): as above
Sequence of 5-HT6 (P50406 whole entry): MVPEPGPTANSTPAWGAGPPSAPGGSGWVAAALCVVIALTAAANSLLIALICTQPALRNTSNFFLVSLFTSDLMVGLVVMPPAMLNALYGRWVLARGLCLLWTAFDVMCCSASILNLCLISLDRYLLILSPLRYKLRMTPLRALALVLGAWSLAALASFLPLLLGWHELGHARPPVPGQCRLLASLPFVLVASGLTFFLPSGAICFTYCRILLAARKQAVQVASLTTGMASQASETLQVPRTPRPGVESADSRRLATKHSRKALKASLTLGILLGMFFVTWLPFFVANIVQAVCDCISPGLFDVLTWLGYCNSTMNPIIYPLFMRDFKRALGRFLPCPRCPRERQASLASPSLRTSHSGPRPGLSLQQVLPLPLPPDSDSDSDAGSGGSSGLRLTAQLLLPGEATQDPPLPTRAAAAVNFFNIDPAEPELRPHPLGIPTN
Sequence of 5-ht5a (P47898 whole entry): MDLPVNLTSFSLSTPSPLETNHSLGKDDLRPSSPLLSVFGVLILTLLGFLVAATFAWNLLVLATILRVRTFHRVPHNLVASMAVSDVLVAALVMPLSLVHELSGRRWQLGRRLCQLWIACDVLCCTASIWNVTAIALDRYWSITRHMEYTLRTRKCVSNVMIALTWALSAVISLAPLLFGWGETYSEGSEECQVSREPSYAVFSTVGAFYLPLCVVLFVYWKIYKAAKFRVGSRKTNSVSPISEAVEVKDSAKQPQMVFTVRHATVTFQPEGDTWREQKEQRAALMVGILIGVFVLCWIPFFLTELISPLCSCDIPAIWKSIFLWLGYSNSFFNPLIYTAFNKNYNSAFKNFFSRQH

CCN(CC)C(=O)[C@@H]1C=C2c3cccc4[nH]cc(c34)C[C@H]2N(C)C1 [LSD, reference compound]
ED50, HTR, automated system (Male C57BL/6J mice [1]): 0.13 µmol/kg | ED50, head twitch, direct observation (mice): 0.14 µmol/kg

COc1cc(C[C@@H](C)N)c(OC)cc1C [R-DOM, R-(−)-2,5-dimethoxy-4-methylamphetamine]
doses producing the head twitch in mice (mice): ≤ 1 mg/kg

COc1cc(CC(C)N)c(OC)cc1I (stereo not drawn) [DOI, 2,5-dimethoxy-4-iodoamphetamine]
doses producing the head twitch in mice (mice): ≤ 1 mg/kg

COc1ccc2[nH]cc(CCN(C(C)C)C(C)C)c2c1 [5-MeO–DIPT, 5-MeO-N,N-diisopropyltryptamine]
doses producing the head twitch in mice (mice): ≤ 1 mg/kg

COc1ccc(CNCCc2cc(OC)c(I)cc2OC)cc1 [Compound 4b, N-(4-Methoxybenzyl)-2-(4-iodo-2,5-dimethoxyphenyl)ethan-1-amine]
Ki (human 5-HT2C receptor [2]): 3.63 nM | EC50 (r5-HT2A): 50 nM | Emax (r5-HT2A): 53.8 ± 0.9% | Emax (h5-HT2C): 50 ± 7% | EC50 (h5-HT2C): 43.2 nM | Ki (5-HT1A): 1060 nM | activity in the HTR assay (active / inactive) (Male C57BL/6J mice [3]; SC): None of the phenethylamines or tryptamines with 4-substituted N-benzyl groups, 4b, 4e, 5c, or 5f, was active | Ki (5-HT7): 1570 nM | Ki (5-ht5a): 1020 nM | Emax (h5-HT2B): 38 ± 2% | EC50 (h5-HT2B): 87 nM | EC50 (r5-HT2C): 132 nM | Emax (r5-HT2C): 97 ± 2% | Ki (human 5-HT2C receptor [4]): 14.1 nM | Ki (5-HT2B; 5-HT2B pKi ± SEM): 16.6 nM | EC50 (h5-HT2A): 60 nM | Emax (h5-HT2A): 74.1 ± 0.8% | Ki (5-HT6): 75 nM | Ki (5-ht1e): 1280 nM | Ki (5-HT2A receptor [5]): 0.7 nM | Ki (5-HT1D): 325 nM | Ki (5-HT3): > 10000 nM | Ki (5-HT2A receptor [6]): 11.7 nM | Ki (5-HT1B): 1590 nM

CC(N)Cc1c[nH]c2ccccc12 (stereo not drawn) [α-methyltryptamine]
active dose range, head twitch (mice): 3 to 30 mg/kg

CCCSc1cc(OC)c(CCN)cc1OC [Compound 2C-T-7, 2,5-dimethoxy-4-propylthiophenethylamine]
doses producing the head twitch in mice (mice): ≤ 1 mg/kg

CN(C)CCc1c[nH]c2cccc(O)c12 [psilocin]
doses producing the head twitch in mice (mice): ≤ 1 mg/kg

COc1cc(C[C@@H](C)N)c(OC)cc1Br [R-DOB, R-(−)-2,5-dimethoxy-4-bromoamphetamine]
doses producing the head twitch in mice (mice): ≤ 1 mg/kg

COc1ccc2[nH]cc(CCN(C)C)c2c1 [Compound 5-MeO-DMT, 5-MeO-N,N-dimethyltryptamine]
active dose range, head twitch (mice): 3 to 30 mg/kg

COc1cccc(CNCCc2cc(OC)c(I)cc2OC)c1 [Compound 4a, N-(3-Methoxybenzyl)-2-(4-iodo-2,5-dimethoxyphenyl)ethan-1-amine]
Ki (human 5-HT2C receptor [2]): 0.126 nM | EC50 (r5-HT2A): 27 nM | Emax (r5-HT2A): 51.7 ± 0.9% | Emax (h5-HT2C): 41 ± 6% | EC50 (h5-HT2C): 33.8 nM | Ki (5-HT1A): 925 nM | max counts (Male C57BL/6J mice [3]; HTR counts, SC): 11.4 | ED50 (Male C57BL/6J mice [3]; Mus musculus, sc, read-out: ED50 mg/kg (95% CI), mouse head twitch): 4.34 mg/kg | activity in the HTR assay (active / inactive) (Male C57BL/6J mice [3]; SC): active | magnitude of peak effect × vehicle (Male C57BL/6J mice [3]; SC, mouse head twitch): 5.7 × vehicle | maximally effective dose (Male C57BL/6J mice [3]; SC, mouse head twitch): 30 mg/kg | Ki (5-HT7): 583 nM | Ki (5-ht5a): 57 nM | Emax (h5-HT2B): ≤ 15% | EC50 (h5-HT2B): 38 nM | EC50 (r5-HT2C): 133 nM | Emax (r5-HT2C): 91 ± 3% | Ki (human 5-HT2C receptor [4]): 4.17 nM | Ki (5-HT2B; 5-HT2B affinity): 4.6 nM | EC50 (h5-HT2A): 28 nM | Emax (h5-HT2A): 71.6 ± 0.9% | Ki (5-HT6): 67 nM | Ki (5-ht1e): 1710 nM | Ki (5-HT2A receptor [5]): 0.269 nM | Ki (5-HT1D): 439 nM | Ki (5-HT3): > 10000 nM | Ki (5-HT2A receptor [6]): 1.55 nM | Ki (5-HT1B): 3230 nM

COc1ccc2[nH]cc(CCNCc3ccccc3Br)c2c1 [Compound 5d, N-(2-Bromobenzyl)-2-(5-methoxy-1H-indol-3-yl)ethan-1-amine]
Ki (human 5-HT2C receptor [2]): 14.1 nM | EC50 (r5-HT2A): 450 nM | Emax (r5-HT2A): 49.7 ± 1.2% | Emax (h5-HT2C): 94 ± 5% | EC50 (h5-HT2C): 439 nM | Ki (5-HT1A): 286 nM | activity in the HTR assay (active / inactive) (Male C57BL/6J mice [3]; SC): failed to induce the HTR; also recorded: inactive | Ki (5-HT7): 1090 nM | Ki (5-ht5a): > 10000 nM | Emax (h5-HT2B): ≤ 15% | EC50 (h5-HT2B): 168 nM | EC50 (r5-HT2C): 898 nM | Emax (r5-HT2C): 104 ± 3% | Ki (human 5-HT2C receptor [4]): 100 nM | Ki (5-HT2B; 5-HT2B pKi ± SEM): 24 nM | EC50 (h5-HT2A): 30 nM | Emax (h5-HT2A): 74.7 ± 1.5% | Ki (5-HT6): 203 nM | Ki (5-ht1e): > 10000 nM | Ki (5-HT2A receptor [5]): 2.34 nM | selectivity h5-HT2A versus h5-HT2C, affinity at the [125I]-DOI-labeled receptors (5-HT2A receptor [5]; agonist-labeled receptors): 6 fold | Ki (5-HT1D): 782 nM | Ki (5-HT3): 6170 nM | Ki (5-HT2A receptor [6]): 25.1 nM | Ki (5-HT1B): > 10000 nM
